We go through six molecules from ChEMBL document CHEMBL1201862, “PubChem BioAssay data set” (2004).

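Results reflect a 48-hour exposure of cells in 96-well plates to compound at five concentrations. GI50: concentration for 50% inhibition of growth.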 The source made the active and inactive calls. Cut-off read from the data, not from the text of the source: active = GI50 up to about 1.1 µM and inactive = higher.

Test systems include OVCAR-4; HCT-15; K562; RPMI-8226; Malme-3M; SF-295; M14; UACC-257; ACHN; CAKI-1; NCI-H522; SR; U-251; TK-10; CCRF-CEM; MDA-MB-435; MOLT-4; 786-0; KM12; HCT-116.
What all share (experiment): NCI-60 cell line screen, 48 h

In the case of `N#Cc1c2c(c(Nc3ccc(F)cc3)n3c1nc1ccccc13)CCCC2`, the GI50 with OVCAR-4 is > 87.3 µM (inactive); in the experiment on HCT-15, > 100 µM; with K562, 0.562 µM (active); in the experiment with RPMI-8226 it was 10.5 µM (inactive); in the experiment on Malme-3M, > 100 µM (inactive); in the experiment on SF-295, 8.15 µM (inactive). Also, the GI50 in the experiment with M14 was 1.7 µM (inactive); in the experiment on UACC-257 it was 27.2 µM (inactive); in the experiment with ACHN, 1.8 µM (inactive); with CAKI-1, > 52.2 µM (inactive); in the experiment on NCI-H522, > 62.1 µM (inactive); in the experiment on SR, 74.3 µM (inactive). Also, the GI50 is 43.8 µM (inactive) in the experiment on U-251; 18.9 µM (inactive) in the experiment with TK-10; > 22.5 µM (inactive) in the experiment with CCRF-CEM; > 24.9 µM (inactive) in the experiment on MDA-MB-435; 6.32 µM (inactive) in the experiment on MOLT-4; 56.2 µM (inactive) with 786-0. Moreover, the GI50 in the experiment on KM12 is 5.6 µM (inactive); with HCT-116, 20 µM (inactive).
As for `N=C(N)N/N=C/c1c(-c2ccc(Cl)c([N+](=O)[O-])c2)nc2sc(Cl)cn12`, the GI50 with OVCAR-4 was 2.04 µM (inactive); in the experiment with HCT-15, 2.29 µM; with K562, 0.617 µM (active); in the experiment with RPMI-8226, 2.99 µM (inactive); in the experiment on Malme-3M, 2.84 µM (inactive); with SF-295, 2.2 µM (inactive). Besides, the GI50 was 2.79 µM (inactive) in the experiment on M14; 1.91 µM (inactive) in the experiment on UACC-257; 1.98 µM (inactive) in the experiment with ACHN; 2.34 µM (inactive) in the experiment on CAKI-1; 1.51 µM (inactive) in the experiment with NCI-H522; 1.44 µM (inactive) in the experiment on SR. In addition, the GI50 is 2.95 µM (inactive) in the experiment on U-251; 28.8 µM (inactive) with TK-10; 0.565 µM (active) with CCRF-CEM; 2.25 µM (inactive) in the experiment with MDA-MB-435; 1.63 µM (inactive) in the experiment with MOLT-4; 3.15 µM (inactive) in the experiment on 786-0. In addition, the values for the GI50 in the experiment with KM12 and in the experiment on HCT-116 were 2.56 µM (inactive) and 3.38 µM (inactive), respectively.
On to `NS(=O)(=O)c1ccc(NNc2c3ccccc3nc3c(C(=O)Nc4ccc(S(N)(=O)=O)cc4)cccc23)cc1`, for which the GI50 in the experiment with OVCAR-4 is 19.6 µM (inactive); with HCT-15 it was > 100 µM; in the experiment on K562, 21.2 µM (inactive); in the experiment with RPMI-8226 it was 24.9 µM (inactive); in the experiment on Malme-3M, 23.8 µM (inactive); in the experiment with SF-295, 37.7 µM (inactive). Moreover, the GI50 is 55.3 µM (inactive) in the experiment with M14; 98.4 µM (inactive) with UACC-257; 27.7 µM (inactive) in the experiment on ACHN; > 100 µM (inactive) in the experiment with CAKI-1; 15.2 µM (inactive) in the experiment with NCI-H522; 9.42 µM (inactive) with SR. The GI50 in the experiment with U-251 was 14.5 µM (inactive); in the experiment on TK-10 it was > 100 µM (inactive); in the experiment on CCRF-CEM, 14.5 µM (inactive); in the experiment with MDA-MB-435 it was 49.3 µM (inactive); in the experiment with MOLT-4, 7.85 µM (inactive); with 786-0 it was 15.6 µM (inactive). Besides, the GI50 was 27.9 µM (inactive) in the experiment on KM12 and 22.1 µM (inactive) in the experiment on HCT-116.
Regarding `COc1cc2cc(C(=O)N3C[C@@H](CCl)c4c3cc(N)c3ccccc43)[nH]c2c(OC)c1OC`, the GI50 with OVCAR-4 is 0.826 µM (active); with HCT-15 it was 0.000579 µM; in the experiment on K562, 0.00327 µM (active); in the experiment with RPMI-8226, 0.0076 µM (active); in the experiment on Malme-3M, < 0.01 µM (active); in the experiment on SF-295 it was < 0.01 µM (active). In addition, the GI50 in the experiment with M14 is 0.00104 µM (active); in the experiment on UACC-257, 0.237 µM (active); in the experiment with ACHN it was 0.00942 µM (active); with CAKI-1, 0.004 µM (active); in the experiment with NCI-H522 it was 0.00283 µM (active); in the experiment with SR, 0.000455 µM (active). Moreover, the GI50 in the experiment with U-251 is 0.00163 µM (active); in the experiment with TK-10, < 0.01 µM (active); in the experiment on CCRF-CEM, 0.000644 µM (active); in the experiment on MDA-MB-435, 0.000269 µM (active); with MOLT-4 it was 0.00557 µM (active); in the experiment with 786-0, 0.103 µM (active). Moreover, the GI50 with KM12 is 0.00216 µM (active); in the experiment with HCT-116 it was 0.000301 µM (active).
On to `CC(=O)Nc1cc2c3c(c1)CCCN3CCC2`, for which the GI50 is > 100 µM (inactive) in the experiment with OVCAR-4; > 100 µM in the experiment with HCT-15; > 100 µM (inactive) in the experiment with K562; > 100 µM (inactive) in the experiment with RPMI-8226; > 100 µM (inactive) in the experiment on Malme-3M; > 100 µM (inactive) in the experiment with SF-295. For the same molecule, the GI50 with M14, in the experiment on UACC-257, with ACHN, in the experiment on CAKI-1, in the experiment with NCI-H522 and with SR was > 100 µM (inactive) in each case. Besides, the GI50 with U-251, with TK-10, with CCRF-CEM, in the experiment on MDA-MB-435, with MOLT-4 and in the experiment on 786-0 was > 100 µM (inactive) in each case. The GI50 in the experiment on KM12 and in the experiment with HCT-116 was > 100 µM (inactive) in each case.
For the molecule `CN1CCC2(CC1)SC[C@H]1C(=O)N(c3ccc(Cl)cc3)C(=O)N12`, the GI50 is > 100 µM (inactive) in the experiment on OVCAR-4; 50.1 µM with HCT-15; 45.2 µM (inactive) in the experiment on K562; > 100 µM (inactive) in the experiment with RPMI-8226; > 100 µM (inactive) in the experiment with Malme-3M; > 100 µM (inactive) in the experiment with SF-295. Further, the GI50 with M14 was > 100 µM (inactive); with UACC-257, > 100 µM (inactive); with ACHN it was 25.9 µM (inactive); in the experiment with CAKI-1 it was > 100 µM (inactive); in the experiment with NCI-H522, > 100 µM (inactive); with SR, > 100 µM (inactive). Also, the GI50 in the experiment with U-251 is > 100 µM (inactive); in the experiment on TK-10, > 100 µM (inactive); with CCRF-CEM it was > 100 µM (inactive); with MDA-MB-435, 43.7 µM (inactive); in the experiment on MOLT-4, > 100 µM (inactive); in the experiment on 786-0 it was > 100 µM (inactive). The GI50 in the experiment on KM12 and in the experiment with HCT-116 was > 100 µM (inactive) each time.
